Consider one compound from patent US8207180B2, “Tricyclic indoles and (4,5-dihydro) indoles” (Nerviano Medical Sciences S.R.L., priority 2006, dated 2012).

Structures are written as SMILES. pIC50: −log10 of the molar value. A value given as a limit tells only on which side of the number the result lay.

This assay addresses AKT-1 (Homo sapiens, UniProt P31749). In words: AKT kinase inhibition assay: Dowex technique (AKT1, Aktide substrate). The assay is classed as biochemical. The note with it: AKT1 5 nM, Aktide 30 μM, ATP 132 μM, 60 min rt. The source says:
Method for AKT Kinase Inhibition Assay: Dowex Technique
General Principle for Kinase Inhibition Assays
Specific peptide or protein substrates are trans-phosphorylated by their specific serine -threonine or tyrosine kinase, in the presence of ATP traced with ^33Pγ-ATP, and in the presence of their own optimal buffer and cofactors.
At the end of the phosphorylation reaction, more than 98% cold ATP and radioactive ATP is captured by an excess of the ion exchange dowex resin; the resin then settles down to the bottom of the reaction plate by gravity.
Supernatant, containing the phosphorylated substrate, is subsequently withdrawn and transferred into a counting plate, then evaluated by β-counting.
• TRIS 50 mM, pH 7.5 • MgCl2 10 mM • DTT 1 mM • NaVO3 […] • BSA 0.2 mg/ml • Assay conditions (final concentrations) for AKT1 • Enzyme concentration (AKT1)=5 nM • Substrate concentration (Aktide, 14 residues peptide, from PRIMM)=30 μM • ATP=132 μM • ^33P-γ-ATP=0.88 nM Robotized Dowex Assay
The “test” mixture consisted of: • 1) 3× Enzyme mix (done in Kinase Buffer 3×), 5 μl/well • 2) 3× substrate and ATP mix (done in DDH2O), together with ^33P-γ-ATP, 5 μl/well • 3) 3× test compounds (diluted into DDH2O-3% DMSO)-5 μl/well Dilution of Compounds
Test compounds are received as 100% DMSO solution at the indicated concentrations: • i—for % inhibition studies, individual dilution plates at 1 mM, 100 μM and 10 μM are prepared in 100% DMSO, then diluted at a 3× concentration (30, 3 and 0.3 μM) in DDH2O, 3% DMSO. A Multimek 96 (Beckman) is used for dilutions and compound pipetting into the test plates • ii—for IC50 determination, compounds are received as 1 mM, 100% DMSO solutions, plated into the first column of a microtiter plate (A1 to G1), 100 μl.
Well H1 is left empty for the internal standard inhibitor, staurosporine.
A Biomek 2000 (Beckman) is used for serial 1:3 dilutions in water, 3% DMSO, from column A1 to A10 and for all the seven compounds in the plate. In a standard experiment, the highest concentration of all compounds is 30 μM, then diluted in the final test mixture down to 10 μM.
384-well plates, V bottom (test plates) are prepared with 5 μl of the compound dilution (3×) and then placed onto a PlateTrak 12 robotized station (Perkin Elmer; the robot has one 384-tips pipetting head for starting the assay plus one 96-tips head for dispensing the resin) together with one reservoir for the Enzyme mix (3×) and one for the ATP mix (3×).
At the start of the run, the robot aspirates 5 μl of ATP mix, makes an air gap inside the tips (3 μl) and aspirates 5 μl of AKT mix. The following dispensation into the plates allows the kinase reaction to start upon 3 cycles of mixing, done by the robot itself.
The robot incubates the plates for 60 minutes at room temperature, and then stops the reaction by pipetting 70 μl of dowex resin suspension into the reaction mix. Three cycles of mixing are done immediately after the addition of the resin.
Another mixing cycle is performed after all the plates are stopped, this time using normal tips: the plates are then allowed to rest for about one hour in order to maximize ATP capture. At this point, 20 μl of the supernatant are transferred into 384-Optiplates (Perkin-Elmer), with 70 μl of Microscint 40 (Perkin-Elmer); after 5 min of orbital shaking the plates are read on a Perkin-Elmer Top Count radioactivity counter.
Data are analysed by an internally customized version of the SW package “Assay Explorer” that provides either % inhibition for primary assays or sigmoidal fittings of the ten-dilutions curves for IC50 determination, for the secondary assays/hit confirmation routines.

Chain of AKT-1 (P31749 whole entry): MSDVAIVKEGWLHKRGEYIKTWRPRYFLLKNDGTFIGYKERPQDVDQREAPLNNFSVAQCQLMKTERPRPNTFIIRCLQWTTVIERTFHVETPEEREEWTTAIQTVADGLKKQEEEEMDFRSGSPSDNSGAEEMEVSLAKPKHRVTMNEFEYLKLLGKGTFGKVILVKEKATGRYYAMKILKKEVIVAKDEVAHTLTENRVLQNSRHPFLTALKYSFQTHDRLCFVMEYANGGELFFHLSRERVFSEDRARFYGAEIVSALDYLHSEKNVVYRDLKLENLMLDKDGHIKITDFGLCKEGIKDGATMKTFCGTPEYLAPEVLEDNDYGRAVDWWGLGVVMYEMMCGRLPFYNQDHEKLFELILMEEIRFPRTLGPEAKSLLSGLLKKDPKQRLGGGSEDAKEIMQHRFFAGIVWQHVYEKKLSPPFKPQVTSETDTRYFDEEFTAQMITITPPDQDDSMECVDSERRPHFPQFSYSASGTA

Turning to `CC(C)(C)OC(=O)NC[C@H](Cc1ccccc1)NC(=O)c1c[nH]c2c1CCc1cnccc1-2` [E11, tert-Butyl {(2S)-2-[(4,5-dihydro-1H-pyrrolo[2,3-f]isoquinolin-3-ylcarbonyl)amino]-3-phenylpropyl}carbamate], the pIC50 is above 6.30.
